IC50 and EC50 data for 39 compounds are collected here from US9139532B2, “Pyrazolyl guanidine F1F0-atpase inhibitors and therapeutic uses thereof” (Lycera Corporation, priority 2010, dated 2015).

The target in one assay is T1, F1F0-ATPase (Bos taurus, UniProt P13621).
T1 construct: from tissue
Description: Inhibition of F1F0-ATPase activity in synthesizing ATP. The assay is classed as biochemical. The settings on record: inhibition of ATP synthesis by F1F0-ATPase; read-out: ATP Syn IC50.

The next assay deals with Ramos cells. Briefly: Cytotoxicity in Ramos cells. The settings on record: read-out: Ramos Cell EC50. The assay is classed as cell-based.
Where [1] appears, read: Homo sapiens, cytotoxicity in Ramos cells.

SMILES strings stand for the structures. Read-outs that look alike come from different tables or passages of the source.

On to `Cc1cc(N/C(=N\C(=O)c2ccc(C(F)(F)F)cc2)NC(C)C)n[nH]1` [Compound A-190], for which the IC50 (usually the concentration needed to halve the response being measured) on F1F0-ATPase was > 10 µM. For the same compound, the EC50 (usually the concentration needed to bring the measured effect to its halfway point) in the assay with Ramos cells (cytotoxicity in Ramos cells) was > 10 µM.
As to `CC(C)CN/C(=N/C(=O)c1cccc(C#N)c1)Nc1cc(-c2cc(F)cc(F)c2)n[nH]1` [Compound A-310], the IC50 at F1F0-ATPase is < 10 µM. Moreover, the EC50 in the assay on Ramos cells (cytotoxicity in Ramos cells) was < 10 µM.
Consider `O=C(/N=C(/Nc1cc(C(F)(F)F)n[nH]1)NC1CCCC1)c1ccc(Cl)c(F)c1` [Compound A-115], for which, on F1F0-ATPase, the IC50 is < 10 µM. For the same compound, the half-maximal effective concentration (EC50) with Ramos cells (setting [1]) is < 10 µM.
Turning to `COc1ccc(C(=O)/N=C(\Nc2cc(-c3ccc(F)cc3)n[nH]2)NC(C)C)c(F)c1` [Compound A-374], the half-inhibitory concentration (IC50) on F1F0-ATPase was < 10 µM. For the same compound, the half-maximal effective concentration (EC50) with Ramos cells (cytotoxicity in Ramos cells) was < 10 µM.
Regarding `O=C(/N=C(\Nc1cc(-c2ccc(F)cc2)n[nH]1)NC1CCCC1)c1cccc(F)c1` [Compound A-388], the half-inhibitory concentration (IC50) on F1F0-ATPase is < 10 µM. For the same compound, the EC50 with Ramos cells (cytotoxicity in Ramos cells) was < 10 µM.
Consider `Cc1ccc(C(=O)/N=C(\Nc2cc(C(F)(F)F)[nH]n2)NC2CCCC2)cc1` [Compound A-547], for which, on F1F0-ATPase, the half-inhibitory concentration (IC50) is < 10 µM. Besides, the half-maximal effective concentration (EC50) in the assay on Ramos cells (cytotoxicity in Ramos cells) is < 10 µM.
For `COCC(C)NC(=NC(=O)c1cccc(F)c1)Nc1cc(-c2cc(F)cc(F)c2)n[nH]1` (stereo not drawn) [Compound A-367], at F1F0-ATPase, the half-maximal inhibitory concentration (IC50) is < 10 µM. The EC50 in the assay on Ramos cells (cytotoxicity in Ramos cells) is < 10 µM.
For the compound `CC(C)N/C(=N/C(=O)c1ccc(C(F)(F)F)cc1)Nc1cc(C(F)F)[nH]n1` [Compound A-58], the half-maximal inhibitory concentration (IC50) on F1F0-ATPase was < 10 µM. For the same compound, in the assay on Ramos cells (setting [1]), the EC50 is > 10 µM.
Regarding `CC(C)(C)N/C(=N/C(=O)c1ccc(Cl)c(F)c1)Nc1cc(-c2ccccc2)[nH]n1` [Compound A-141], at F1F0-ATPase, the half-inhibitory concentration (IC50) was < 10 µM. The EC50 in the assay with Ramos cells (cytotoxicity in Ramos cells) was < 10 µM.
Take `O=C(/N=C(\Nc1cc(C(F)(F)F)n[nH]1)NC1CCC1)c1ccc(Cl)c(F)c1` [Compound A-114]: on F1F0-ATPase, the IC50 is < 10 µM. Besides, the concentration for a half-maximal effect (EC50) in the assay with Ramos cells (setting [1]) is < 10 µM.
Turning to `CC1(CNC(=NC(=O)c2ccc(Cl)c(F)c2)Nc2cc(-c3ccc(F)cc3)n[nH]2)CCCO1` (stereo not drawn) [Compound A-210], on F1F0-ATPase, the IC50 is < 10 µM. In the assay with Ramos cells (setting [1]), the EC50 is < 10 µM.
As for `CC(C)(C)N/C(=N/C(=O)c1cccc(C#N)c1)Nc1cc(-c2ccc(Cl)cc2)n[nH]1` [Compound A-308], at F1F0-ATPase, the concentration for half-maximal inhibition (IC50) was < 10 µM. Further, the EC50 in the assay on Ramos cells (cytotoxicity in Ramos cells) is < 10 µM.
Consider `O=C(/N=C(\Nc1cc(-c2ccc(F)cc2)n[nH]1)NC1CC1)c1cccc(F)c1` [Compound A-202], for which the IC50 on F1F0-ATPase was < 10 µM. In addition, in the assay with Ramos cells (cytotoxicity in Ramos cells), the EC50 is > 10 µM.
With `COCC(C)NC(=NC(=O)c1ccc(S(C)(=O)=O)cc1)Nc1cc(-c2ccc(F)cc2)n[nH]1` (stereo not drawn) [Compound A-497], the half-inhibitory concentration (IC50) on F1F0-ATPase is < 10 µM. Moreover, the EC50 in the assay on Ramos cells (setting [1]) is < 10 µM.
As to `Cc1ccc(-c2cc(NC(=NC(=O)c3ccc(C(F)(F)F)cc3)NC(C)(C)C)[nH]n2)cc1F` [Compound A-434], on F1F0-ATPase, the IC50 was < 10 µM. Moreover, the 50% effective concentration (EC50) with Ramos cells (setting [1]) is > 10 µM.
Take `O=C(/N=C(/Nc1cc(F)cc(Cl)c1)Nc1cc(-c2ccccc2)[nH]n1)c1ccc(C(F)(F)F)cc1` [Compound A-151]: the IC50 on F1F0-ATPase is < 10 µM. In addition, the EC50 in the assay with Ramos cells (cytotoxicity in Ramos cells) is > 10 µM.
Take `O=C(/N=C(\Nc1cc(C(F)(F)F)[nH]n1)NC1CCCC1)c1ccccc1` [Compound A-545]: the concentration for half-maximal inhibition (IC50) at F1F0-ATPase is < 10 µM. Also, the EC50 in the assay on Ramos cells (cytotoxicity in Ramos cells) is < 10 µM.
For `Cc1ccc(-c2cc(NC(=NC(=O)c3ccc(Cl)c(F)c3)NC(C)(C)C)[nH]n2)cc1` [Compound A-470], the IC50 on F1F0-ATPase is < 10 µM. In the assay with Ramos cells (setting [1]), the concentration giving a half-maximal response (EC50) was > 10 µM.
Turning to `N#Cc1cccc(C(=O)/N=C(/NCc2ccc(F)cc2Cl)Nc2cc(C(F)(F)F)[nH]n2)c1` [Compound A-82], the IC50 on F1F0-ATPase was < 10 µM. For the same compound, the EC50 in the assay with Ramos cells (Homo sapiens, Ramos) was < 10 µM.
On to `CC(C)(C)NC(=NC(=O)c1ccc(Cl)cc1)Nc1cc(-c2ccc(Cl)cc2)n[nH]1` [Compound A-132], for which the IC50 at F1F0-ATPase is < 10 µM. Further, the concentration for a half-maximal effect (EC50) in the assay with Ramos cells (setting [1]) is < 10 µM.
`CC1(CN/C(=N/C(=O)c2ccc(F)cc2)Nc2cc(-c3ccc(F)cc3)n[nH]2)COC1` [Compound A-196]: the concentration for half-maximal inhibition (IC50) on F1F0-ATPase was < 10 µM. The EC50 in the assay on Ramos cells (cytotoxicity in Ramos cells) was < 10 µM.
As to `O=C(/N=C(\Nc1cc(C(F)(F)F)[nH]n1)NC1CCCC1)c1ccc(C(F)F)cc1` [Compound A-67], the 50% inhibitory concentration (IC50) at F1F0-ATPase was < 10 µM. The concentration for a half-maximal effect (EC50) with Ramos cells (setting [1]) is < 10 µM.
On to `CC(C)N/C(=N/C(=O)c1ccc(Cl)cc1)Nc1cc(C(F)(F)F)n[nH]1` [Compound A-107], for which the IC50 at F1F0-ATPase is < 10 µM. Also, the half-maximal effective concentration (EC50) with Ramos cells (setting [1]) was < 10 µM.
With `O=C(/N=C(\Nc1cc(-c2ccc(F)cc2)n[nH]1)NC1CCC1)c1ccc(Cl)c(F)c1` [Compound A-222], the half-maximal inhibitory concentration (IC50) on F1F0-ATPase was < 10 µM. The EC50 with Ramos cells (cytotoxicity in Ramos cells) was < 10 µM.
For the compound `CC(C)CNC(=NC(=O)c1ccc(Cl)cc1)Nc1cc(-c2ccc(F)cc2)n[nH]1` [Compound A-249], at F1F0-ATPase, the IC50 was < 10 µM. Besides, the concentration for a half-maximal effect (EC50) with Ramos cells (setting [1]) is < 10 µM.
Consider `COc1cccc(C(=O)N=C(NCC(C)(C)C)Nc2cc(-c3ccc(F)cc3)n[nH]2)c1` [Compound A-516], for which the IC50 at F1F0-ATPase was < 10 µM. Further, the EC50 in the assay on Ramos cells (setting [1]) was < 10 µM.
In the case of `CC(C)(C)CN/C(=N/C(=O)c1ccc(C(F)(F)F)cc1)Nc1cc(C(F)F)[nH]n1` [Compound A-68], the half-maximal inhibitory concentration (IC50) on F1F0-ATPase is < 10 µM. Also, the EC50 with Ramos cells (setting [1]) was < 10 µM.
Turning to `O=C(/N=C(/NCc1ccc(F)cc1Cl)Nc1cc(-c2cccc(Cl)c2)n[nH]1)c1ccc(F)c(F)c1` [Compound A-477], on F1F0-ATPase, the IC50 was < 10 µM. In the assay on Ramos cells (cytotoxicity in Ramos cells), the 50% effective concentration (EC50) was > 10 µM.
In the case of `COCC(C)NC(=NC(=O)c1ccc(F)c(F)c1)Nc1cc(-c2cc(F)cc(Cl)c2)n[nH]1` (stereo not drawn) [Compound A-246], the half-inhibitory concentration (IC50) on F1F0-ATPase was < 10 µM. The half-maximal effective concentration (EC50) in the assay with Ramos cells (setting [1]) was < 10 µM.
`CCOC[C@H](C)NC(=NC(=O)c1ccc(F)cc1)Nc1cc(-c2cc(F)cc(F)c2)n[nH]1` [Compound A-242]: at F1F0-ATPase, the half-maximal inhibitory concentration (IC50) was < 10 µM. Besides, the EC50 with Ramos cells (setting [1]) is < 10 µM.
As for `CCOCCCNC(=NC(=O)c1ccc(Cl)cc1)Nc1cc(-c2ccc(F)cc2)n[nH]1` [Compound A-278], the IC50 at F1F0-ATPase was < 10 µM. In addition, in the assay with Ramos cells (setting [1]), the EC50 was > 10 µM.
With `O=C(N=C(Nc1cc(F)cc(Cl)c1)Nc1cc(-c2ccc(F)cc2)n[nH]1)c1ccc(F)cc1` [Compound A-461], on F1F0-ATPase, the IC50 is < 10 µM. The concentration giving a half-maximal response (EC50) in the assay on Ramos cells (setting [1]) is < 10 µM.
Consider `O=C(/N=C(\Nc1cc(C(F)(F)F)n[nH]1)NC1CCC1)c1ccc(C(F)(F)F)cc1` [Compound A-91], for which the IC50 on F1F0-ATPase was < 10 µM. Besides, the EC50 in the assay on Ramos cells (setting [1]) is < 10 µM.
For the compound `COCC(C)N/C(=N/C(=O)c1ccc(Cl)cc1)Nc1cc(C(F)(F)F)n[nH]1` (stereo not drawn) [Compound A-111], the IC50 on F1F0-ATPase is < 10 µM. In addition, in the assay on Ramos cells (setting [1]), the half-maximal effective concentration (EC50) is < 10 µM.
With `O=C(N=C(Nc1cc(-c2ccc(Cl)cc2)n[nH]1)NC1CCCC1)c1ccc(Cl)c(F)c1` [Compound A-382], the half-maximal inhibitory concentration (IC50) on F1F0-ATPase is < 10 µM. The EC50 in the assay with Ramos cells (setting [1]) was < 10 µM.
In the case of `COc1ccc(CN/C(=N/C(=O)c2ccccc2)Nc2cc(C(F)(F)F)[nH]n2)cc1` [Compound A-425], the half-maximal inhibitory concentration (IC50) at F1F0-ATPase was < 10 µM. The concentration for a half-maximal effect (EC50) in the assay on Ramos cells (cytotoxicity in Ramos cells) is < 10 µM.
Regarding `COc1cc(C(=O)/N=C(\Nc2cc(-c3ccc(F)cc3)n[nH]2)NC(C)(C)C)ccn1` [Compound A-496], the concentration for half-maximal inhibition (IC50) at F1F0-ATPase was < 10 µM. In addition, the EC50 with Ramos cells (cytotoxicity in Ramos cells) is < 10 µM.
Take `CCOCC(C)NC(=NC(=O)c1ccc(Cl)c(F)c1)Nc1cc(-c2ccc(F)cc2)n[nH]1` (stereo not drawn) [Compound A-217]: the IC50 on F1F0-ATPase was < 10 µM. For the same compound, the EC50 in the assay with Ramos cells (setting [1]) was < 10 µM.
For `Cc1ccc(-c2cc(NC(=NC(=O)c3ccc(C(F)(F)F)cc3)NC(C)(C)C)[nH]n2)cc1` [Compound A-426], the IC50 on F1F0-ATPase was < 10 µM. Also, the EC50 in the assay on Ramos cells (setting [1]) was > 10 µM.
